How the values were obtained:
[1] = The compound was evaluated for inhibition of topoisomerase I mediated DNA relaxation of supercoiled DNA; 0.1-1; format: functional
833K = test: Tested in vitro for growth inhibitory activity against 833K (human teratorcarcinoma) cells; format: functional, cell-based
[2] = The compound was evaluated for enhancement of topoisomerase I mediated DNA cleavage of supercoiled DNA; 0.1-1; format: functional
HL-60 = test: Tested in vitro for growth inhibitory activity against HL60 (human promyelocytic leukemic) cells; format: functional, cell-based
DC3F [3] = test: Tested in vitro for growth inhibitory activity against DC-3F (hamster lung) cells; format: functional, cell-based; conditions: Cricetulus griseus
[4] = The compound was evaluated for inhibition of topoisomerase I mediated DNA relaxation of supercoiled DNA; 1-2; format: functional
[5] = The compound was evaluated for enhancement of topoisomerase I mediated DNA cleavage of supercoiled DNA; 1-2; format: functional
[6] = The compound was evaluated for inhibition of topoisomerase I mediated DNA relaxation of supercoiled DNA; format: functional
[7] = The compound was evaluated for enhancement of topoisomerase I mediated DNA cleavage of supercoiled DNA; 2-5; format: functional
[8] = The compound was evaluated for inhibition of topoisomerase I mediated DNA relaxation of supercoiled DNA; 5-20; format: functional
DC3F [9] = test: The compound was tested in vitro for growth inhibitory activity against DC-3F (hamster lung) cells; Inactive; format: functional, cell-based, Cricetulus griseus

| SMILES | Inhibition [1] [µM] | IC50 (833K) [nM] | Enhancement [2] [µM] | IC50 (HL-60) [nM] | IC50 (DC3F [3]) [nM] | Inhibition [4] [µM] | Enhancement [5] [µM] | Inhibition [6] [µM] | Enhancement [7] [µM] | Inhibition [8] [µM] | IC50 (DC3F [9]) |
| --- | --- | --- | --- | --- | --- | --- | --- | --- | --- | --- | --- |
| CC[C@@]1(O)C(=O)OCc2c1cc1n(c2=O)Cc2c-1nc1ccccc1c2[Si](C)(C)C | 1 | 5.6 | 0.1 | 3.8 | 4.2 | – | – | – | – | – | – |
| CC[C@@]1(O)C(=O)OCc2c1cc1n(c2=O)Cc2c-1nc1c(F)c(F)ccc1c2[Si](C)(C)C | – | 2.1 | – | 1.01 | 2.5 | 1 | 1 | – | – | – | – |
| CC[C@@]1(O)C(=O)OCc2c1cc1n(c2=O)Cc2c-1nc1ccc(O)cc1c2[Si](C)(C)C | – | 7 | 0.1 | 2.6 | 6.9 | – | – | < 0.1 | – | – | – |
| CC[C@@]1(O)C(=O)OCc2c1cc1n(c2=O)Cc2c-1nc1ccc(N)cc1c2[Si](C)(C)C | – | 5.7 | – | 0.52 | 0.72 | – | – | – | – | – | – |
| CC[C@@]1(O)C(=O)OCc2c1cc1n(c2=O)Cc2c-1nc1ccccc1c2[Si](C)(C)C(C)(C)C | 1 | 1.2 | 0.1 | 0.12 | 2.9 | – | – | – | – | – | – |
| CC[C@@]1(O)C(=O)OCc2c1cc1n(c2=O)Cc2c-1nc1cccc(F)c1c2[Si](C)(C)C | 0.1 | 2.9 | 0.1 | 3 | 8.2 | – | – | – | – | – | – |
| CC[C@@]1(O)C(=O)OCc2c1cc1n(c2=O)Cc2c-1nc1cc(N)ccc1c2[Si](C)(C)C | – | 7.4 | – | 2.6 | 6.4 | – | – | – | – | – | – |
| CC[C@@]1(O)C(=O)OCc2c1cc1n(c2=O)Cc2c-1nc1ccc(N3CCCC3N3CCCC3OC(N)=O)cc1c2[Si](C)(C)C (stereo not given in full) | – | 214 | – | 66 | 256 | – | – | – | – | – | – |
| CC[C@@]1(O)C(=O)OCc2c1cc1n(c2=O)Cc2c-1nc1cc(F)ccc1c2[Si](C)(C)C | – | 0.92 | 0.1 | 0.75 | 2 | – | – | < 0.1 | – | – | – |
| CC[C@@]1(O)C(=O)OCc2c1cc1n(c2=O)Cc2c-1nc1ccccc1c2[Si](c1ccccc1)(c1ccccc1)C(C)(C)C | – | 243 | – | 339 | 663 | – | – | – | 2 | 5 | – |
| CC[C@@]1(O)C(=O)OCc2c1cc1n(c2=O)Cc2c-1nc1cc(F)c(N)cc1c2[Si](C)(C)C | 0.1 | 0.14 | 0.1 | 0.07 | 0.29 | – | – | – | – | – | – |
| CCc1c2c(nc3ccc(N4CCCC4N4CCCC4OC(N)=O)cc13)-c1cc3c(c(=O)n1C2)COC(=O)[C@]3(O)CC (stereo not given in full) | – | 487 | – | 270 | 372 | – | – | – | – | – | – |
| CC[C@@]1(O)C(=O)OCc2c1cc1n(c2=O)Cc2c-1nc1ccc(CCc3ccc4nc5c(c([Si](C)(C)C)c4c3)Cn3c-5cc4c(c3=O)COC(=O)[C@]4(O)CC)cc1c2[Si](C)(C)C | – | 84 | – | 53 | – | – | – | > 20 | – | – | Not Active |
| CC[C@@]1(O)C(=O)OCc2c1cc1n(c2=O)Cc2c-1nc1ccc(OC(C)=O)cc1c2[Si](C)(C)C | – | – | 0.1 | 2.7 | 6.7 | – | – | < 0.1 | – | – | – |
| CCC(=O)OCc1c([C@@](O)(CC)C(=O)NCCN(C)C)cc2n(c1=O)Cc1c-2nc2ccc(O)cc2c1[Si](C)(C)C | – | 15 | – | 9.7 | 14.2 | – | 1 | – | – | 5 | – |
| CC[C@@]1(O)C(=O)OCc2c1cc1n(c2=O)Cc2cc3ccccc3nc2-1 [CAMPTOTHECIN] | – | 10 | – | 5 | 6 | 1 | 1 | – | – | – | – |

Reference: ChEMBL document CHEMBL1159184, “7-Silylcamptothecins (silatecans): A new family of camptothecin antitumor agents” (Bioorg Med Chem Lett, 1997)
